This is an account of results in patent US20200390902A1, “Antibody-Drug Conjugates Targeted at Human Aspartyl-(Asparaginyl)-B-Hydroxylase (HAAH)” (Panacea Pharmaceuticals, Inc., priority 2017, published 2020).

Entries after “also recorded” stand apart in the source; their conditions may differ.

For data set [1], the system named is MIA-PaCa-2 ASPH-derived tumors. In words: Mouse model inoculated with pancreas cancer cells, MIA-PaCa-2 ASPH tumors. In kind it is in vivo. As to the method:
(§1) The efficacy and specificity of SNS622-MC-DM1 was first examined in the mouse model with inoculation of pancreas cancer cells. In this model. 5 to 6-week-old female Nod Scid Gamma (NSG) mice (The Jackson Laboratory, Bar Harbor, Me., U.S.A.) were subcutaneously inoculated with 5×10^5 MIA-PaCa-2 EV cells (MIA-PaCa-2 cells transduced with an empty lentivirus vector) in 100 μl buffer solution on one shoulder, and with 5×10^5 MIA-PaCa-2 ASPH cells (MIA-PaCa-2 cells expressing high levels of ASPH) in 100 μl buffer solution on the other shoulder Two weeks post-inoculation, SNS622-MC-DM1 or IgG1-MC-DM1 was injected at 5 mg/kg through a tail vein once a week for 4 weeks. A representation of the schedule used for the ADC treatments is show n in FIG. 13.
The volume of the tumors inoculated with the MIA-PaCa-2 ASPH cells was measured starting at day 1 of treatment with ADC, and the results are shown in FIG. 15B.

The subject of the next data set is H460 cells. In words: Cell morphology by phase contrast microscope, H460. The data set is classed as cell-based, human. As to conditions: H460, 32 nM, 72 hours.
The subject of data set [2] is pancreatic ductular adenocarcinoma (PDAC) xenograft. In words: Patient-derived xenograft (PDx) model of PDAC, primary tumor growth. Particulars: 2.5 mg/kg i.v., by day 35, vs SNS622 or non-treated control. In kind it is in vivo, mouse. An excerpt:
(§2) Pancreatic ductular adenocarcinoma (PDAC) is a highly lethal malignancy with limited treatment options. HAAH is a cell surface protein that is highly expressed in […] of PDACs. The specificity of SNS622-MC-DM1 was next examined in the patient-derived xenograft (PDx) mouse model PDAC. The patient-derived xenograft (PDx) murine model was established by using surgically resected PDAC (from Rhode Island Hospital, Providence, R.I., U.S.A.). Five to six-week-old female Nod Scid Gamma (NSG) mice were employed. The surgically resected tumor tissue was diced into 5×5×5 mm^3 pieces, and a piece of tumor tissue was subcutaneously transplanted under anesthesia with isoflurane into each mouse via a small incision in the lower back, A buprenorphine analgesic was injected to each mouse for 3 days after surgery. The SNS622 antibody or the SNS622-MC-DM1 ADC was administered at a dose of 2.5 mg/kg by intravenous tail-vein injection every two weeks starting at day 17 post-surgery. Body weight and tumor size were measured twice a week and tumor volume was calculated using the modified ellipsoid formula (0.5×length×width^2). To determine the effect of SNS622-MC-DM1 on lung metastasis, all lung tissues were immersed in Bouin's fixative solution (Sigma-Aldrich, St. Louis, Mo., U.S.A.; catalog No, HT10132) and metastatic nodules on the surface of the lungs were counted. […]
(In general: A xenograft is tissue or cells of one species grown in another, often human tumour cells in immunodeficient mice.)

For data set [3], the system named is normal human lung fibroblasts (NHLF). In words: Lactate dehydrogenase (LDH) release assay, NHLF. Particulars: 32 nM, 72 hours. The data set is classed as cell-based.
Description: (§3) Both cell lines were cultured in HG-DMEM (ThermoFisher Scientific Catalog No. 11965-092) supplemented with 20 mM HEPES (4-(2-hydroxyethyl)-1-piperazineethanesulfonic acid), 4 mM L-glutamine, 1 mM sodium pyruvate, 1× non-essential amino acids, 50 μg/ml gentamicin and 10% fetal bovine serum (FBS). H460 and NHLF cells were seeded into 96-well plates at 5,000 cells per well, following a 2-day FBS deprivation, and released by culture in complete culture medium containing 10% FBS. […] By 72 hours post treatment, cell death was determined by observing cell morphology using a phase contrast microscope at 150×.
The cell death was also quantified using lactate dehydrogenase (LDH) releasing assay. For the LDH assay, a mixture of a 35 μl aliquot of culture medium and 17.5 μl of substrate, enzyme, and dye solutions (Sigma, St. Louis, Mo., U.S.A.) was incubated at room temperature for 30 minutes, and absorbance was measured at 490 nm using a plate reader (ELx805; BioTek, Winooski, Vt., U.S.A.).
Data set [4] deals with metastatic nodules in the lungs (PDAC PDx). Kind of data set: PDx model of PDAC, lung metastasis. In kind it is in vivo, mouse. Particulars: 1.9 mg/kg, after 6 weeks of administration.
Excerpt: as §2, with “The surgically resected tumor tissue was diced into 5×5×5 mm^3 pieces, and a piece of tumor tissue was subcutaneously transplanted under anesthesia with isoflurane into each mouse via a small incision in the lower back, A buprenorphine analgesic was injected to each mouse for 3 days after surgery. The SNS622 antibody or the SNS622-MC-DM1 ADC was administered at a dose of 2.5 mg/kg by intravenous tail-vein injection every two weeks starting at day 17 post-surgery.” left out
This phenotype was maintained in the PDx model of NSG mouse. […] In this context, dose and period of administration of PAN-622 or SNS622-MC-DM1 for treatment of NSG mice was reduced to 1.9 mg/kg and the development and growth of metastatic nodules in the lungs after the treatment was assessed After 6 weeks of administration, the number of macroscopic metastatic nodules on the lung surface was determined.

Data set [5] deals with MIA-PaCa-2 EV-derived tumors. Kind of data set: Mouse model inoculated with pancreas cancer cells, MIA-PaCa-2 EV tumors. In kind it is in vivo. As to conditions: 5 mg/kg, 29 days. As to the method: as §1
The response to treatment with SNS622-MC-DM1 of tumors derived from MIA-PaCa-2 HAAH cells and from MIA-PaCa-2 EV cells were compared in the same mouse.

Description for H460 cells: as §3

In the case of “SNS622-MC-DM1: SNS622 anti-HAAH monoclonal antibody conjugated to mertansine (DM1) by the non-cleavable linker maleimidocaproyl (MC)”, the “Effect on MIA-PaCa-2 ASPH tumor volume / growth” value in data set [1] (5 mg/kg, up to 29 days) is “robustly suppressed; also recorded: strongly suppressed growth of MIA-PaCa-2 ASPH-derived tumors”. The “Reduction in tumor volume in comparison with IgG-MC-DM1 group” value is listed as “approximately 55%” in data set [1] (day 15, 5 mg/kg tail vein once a week); “approximately 53%” in data set [1] (day 22, 5 mg/kg tail vein once a week); “approximately 53%” in data set [1] (day 29, 5 mg/kg tail vein once a week). The “Volume of MIA-PaCa-2 ASPH-derived tumors relative to MIA-PaCa-2 EV-derived tumors” value in data set [1] (treatment day 29, same mouse, 5 mg/kg) is “approximately 1/7”. Also, the “Cell density (morphology)” value in the data set with H460 cells is “reduction of cell density”. For the same substance, in data set [2], the PDAC tumor growth entry is given as “significantly reduced PDAC tumor growth”. Moreover, in data set [3], the “Increase in LDH release” value is “did not result in a detectable increase in LDH release”. Further, the “Mean number of nodules per animal” value in data set [4] is given as 3.25. The “Total number of metastatic nodules in group” value in data set [4] is “approximately 35”. In addition, the “Effect on MIA-PaCa-2 EV tumor growth” value in data set [5] is given as “grew fast throughout the duration of the experiment; also recorded: much lower effect on tumors derived from MIA-PaCa-2 EV cells”.
